How the values were obtained:
[1] = molecular target: T1, PD-L1 (Homo sapiens, UniProt Q9NZQ7); details: in vitro; cited from earlier work
[2] = molecular target: T1, PD-L1; details: xenograft model, T-cell dependent mechanism; cited from earlier work
[3] = test system: metastatic melanoma; assay: Riaz et al clinical cohort: response to nivolumab by tumour mtDNA mutation status; format: in vivo, humans
Protocol: A—Stratification of a metastatic melanoma patient cohort by mtDNA status. […] P-values were determined using one-way ANOVA test with Sidak multiple comparisons test (C,F), one-tailed student's t-test (I) or chi-squared test (H) were applied. Error bars indicate SD. Measure of centrality is mean.
The inventors then assessed whether this would be associated with clinical outcome.
Aligned reads for ChrM for patients' tumour and normal samples were acquired and processed according to previously described pipelines which are now publicly available (see e.g. Gorelick et al., Nature Metabolism 2021). Mutation calls and calculated heteroplasmy were used to assign patients to mtDNA wildtype, <50% VAF or >50% VAF groups.

[4] = test system: metastatic melanoma; details: of the 15 responders; cited from earlier work

T1 sequence (Q9NZQ7 19-290): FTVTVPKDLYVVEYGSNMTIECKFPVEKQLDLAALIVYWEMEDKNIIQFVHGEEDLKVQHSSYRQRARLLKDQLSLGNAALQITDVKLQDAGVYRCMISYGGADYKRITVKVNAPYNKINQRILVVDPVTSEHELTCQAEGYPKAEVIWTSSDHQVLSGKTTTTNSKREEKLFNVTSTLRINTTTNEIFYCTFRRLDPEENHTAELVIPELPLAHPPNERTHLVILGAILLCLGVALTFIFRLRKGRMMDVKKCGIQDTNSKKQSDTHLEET

Substance	Effect on PD-L1-mediated suppression of human T-cell activation [1]	Effect on tumour growth [2]	Tumours responding to nivolumab ([3]; <50% VAF tumours) [%]	Tumours responding to nivolumab ([3]; >50% VAF tumours) [%]	Complete responders categorised as >50% VAF ([3]; out of the 3 complete responders)	Complete responses [4]	Partial responses [4]
MEDI4736: anti-PD-L1 antibody selective for PD-L1 that blocks binding of PD-L1 to PD-1 and CD80	relieve PD-L1-mediated suppression of human T-cell activation	inhibit tumour growth					
nivolumab			17	40	2	3	12

Reference: US20260152799A1, “TUMOUR STRATIFICATION FOR RESPONSIVENESS TO AN IMMUNE CHECKPOINT INHIBITOR” (MEMORIAL SLOAN-KETTERING CANCER CENTER, priority 2022, published 2026)
